ChEMBL document CHEMBL5608259 (J Med Chem, 2024)
Activity calls are given as the source filed them. The calls are words filed in the database; no cut-off is given here.

How the values were obtained:
[1] = molecular target: Protein arginine N-methyltransferase 8 (Homo sapiens, UniProt Q9NR22); assay: Inhibition of human PRMT8 using Histone H4 as substrate and SAM as cofactor at 10 uM by radiometric HotSpot assay relative to control
[2] = molecular target: T1, Histone-arginine methyltransferase CARM1 (Homo sapiens) (UniProt Q86X55); assay: Inhibition of human PRMT4 using histone H3 as substrate and SAM as cofactor at 10 uM by radiometric HotSpot assay relative to control
T1 sequence (whole entry): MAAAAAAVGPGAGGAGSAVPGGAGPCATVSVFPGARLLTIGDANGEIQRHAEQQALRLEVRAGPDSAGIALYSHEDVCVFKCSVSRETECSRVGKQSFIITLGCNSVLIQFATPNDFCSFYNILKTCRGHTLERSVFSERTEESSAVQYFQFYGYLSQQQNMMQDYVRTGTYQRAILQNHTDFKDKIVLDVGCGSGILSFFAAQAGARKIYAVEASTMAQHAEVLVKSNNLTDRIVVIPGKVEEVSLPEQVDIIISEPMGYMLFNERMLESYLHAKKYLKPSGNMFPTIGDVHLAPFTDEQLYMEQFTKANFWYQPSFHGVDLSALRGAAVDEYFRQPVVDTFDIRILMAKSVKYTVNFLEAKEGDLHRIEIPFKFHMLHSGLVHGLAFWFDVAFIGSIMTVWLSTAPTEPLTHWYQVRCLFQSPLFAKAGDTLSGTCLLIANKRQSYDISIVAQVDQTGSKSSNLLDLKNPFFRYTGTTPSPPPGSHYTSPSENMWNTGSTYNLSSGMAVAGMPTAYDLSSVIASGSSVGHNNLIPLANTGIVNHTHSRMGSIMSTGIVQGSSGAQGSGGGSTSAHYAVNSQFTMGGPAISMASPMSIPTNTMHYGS

[3] = molecular target: Protein arginine N-methyltransferase 1 (Homo sapiens, UniProt Q99873); assay: Inhibition of human PRMT1 using H4-21peptide as substrate at 10 uM incubated for 10 mins by fluorescence based analysis relative to control
Protein arginine N-methyltransferase 1, sequence (Q99873 whole entry, looked up): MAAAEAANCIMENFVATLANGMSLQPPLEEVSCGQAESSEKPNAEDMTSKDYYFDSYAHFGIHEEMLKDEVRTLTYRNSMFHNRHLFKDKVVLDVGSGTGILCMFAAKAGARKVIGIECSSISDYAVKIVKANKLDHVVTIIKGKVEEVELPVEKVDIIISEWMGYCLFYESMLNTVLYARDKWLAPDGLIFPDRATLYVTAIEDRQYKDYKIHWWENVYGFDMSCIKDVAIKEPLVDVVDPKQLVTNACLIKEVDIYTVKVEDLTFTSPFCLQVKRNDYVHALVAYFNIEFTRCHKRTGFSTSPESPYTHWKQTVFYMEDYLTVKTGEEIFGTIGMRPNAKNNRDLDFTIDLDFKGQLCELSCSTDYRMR

[4] = molecular target: Protein arginine N-methyltransferase 3 (Homo sapiens, UniProt O60678); assay: Inhibition of human PRMT3 using H4-21peptide as substrate at 10 uM incubated for 10 mins by fluorescence based analysis relative to control
Protein arginine N-methyltransferase 3, sequence (O60678 2-531 limits assumed): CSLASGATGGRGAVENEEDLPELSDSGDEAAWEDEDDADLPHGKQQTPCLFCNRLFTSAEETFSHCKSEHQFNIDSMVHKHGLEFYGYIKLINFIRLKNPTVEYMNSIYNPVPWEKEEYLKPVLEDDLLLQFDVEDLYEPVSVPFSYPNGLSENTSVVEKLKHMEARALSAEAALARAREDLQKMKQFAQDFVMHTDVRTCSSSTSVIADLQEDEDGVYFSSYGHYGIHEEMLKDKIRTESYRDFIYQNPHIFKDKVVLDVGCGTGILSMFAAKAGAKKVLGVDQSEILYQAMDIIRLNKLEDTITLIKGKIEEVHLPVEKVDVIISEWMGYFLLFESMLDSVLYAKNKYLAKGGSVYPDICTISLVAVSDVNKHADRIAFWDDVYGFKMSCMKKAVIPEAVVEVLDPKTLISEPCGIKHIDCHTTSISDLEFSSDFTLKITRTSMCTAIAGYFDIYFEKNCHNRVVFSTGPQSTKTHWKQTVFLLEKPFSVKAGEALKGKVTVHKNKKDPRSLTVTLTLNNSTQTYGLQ

[5] = molecular target: Protein arginine N-methyltransferase 6 (Homo sapiens, UniProt Q96LA8); assay: Inhibition of human PRMT6 using GST-GAR as substrate and SAM as cofactor at 10 uM by radiometric HotSpot assay relative to control
Protein arginine N-methyltransferase 6, sequence (Q96LA8 whole entry, looked up): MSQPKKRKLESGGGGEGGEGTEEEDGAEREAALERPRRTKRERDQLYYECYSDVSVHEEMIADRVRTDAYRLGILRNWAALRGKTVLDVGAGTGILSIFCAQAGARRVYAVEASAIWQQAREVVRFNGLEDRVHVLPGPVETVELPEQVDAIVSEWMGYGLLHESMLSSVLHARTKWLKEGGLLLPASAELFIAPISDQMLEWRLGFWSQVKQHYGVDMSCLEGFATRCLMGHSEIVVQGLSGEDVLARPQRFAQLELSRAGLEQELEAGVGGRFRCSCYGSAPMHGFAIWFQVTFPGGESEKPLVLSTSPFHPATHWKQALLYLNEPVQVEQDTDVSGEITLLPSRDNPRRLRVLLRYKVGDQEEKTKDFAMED

Protein arginine N-methyltransferase 8, sequence (Q9NR22 2-394 limits assumed): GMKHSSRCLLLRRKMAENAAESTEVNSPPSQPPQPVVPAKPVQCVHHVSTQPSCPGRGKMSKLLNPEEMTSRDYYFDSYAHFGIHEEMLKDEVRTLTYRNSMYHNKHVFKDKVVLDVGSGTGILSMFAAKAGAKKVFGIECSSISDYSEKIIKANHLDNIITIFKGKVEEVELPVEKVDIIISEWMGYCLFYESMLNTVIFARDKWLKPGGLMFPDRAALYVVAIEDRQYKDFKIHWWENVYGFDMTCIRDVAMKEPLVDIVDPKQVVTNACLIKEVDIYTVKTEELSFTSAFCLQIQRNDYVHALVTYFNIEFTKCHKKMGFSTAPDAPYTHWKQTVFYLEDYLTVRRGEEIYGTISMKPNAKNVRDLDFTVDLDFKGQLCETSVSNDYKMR

inhibition [1] [%] | inhibition [2] [%] | inhibition [3] | inhibition [4] [%] | inhibition [5] [%] | Compound
< 30 | 27 | < 50% | 3 | – | Nc1ncnc2c1ncn2[C@@H]1O[C@H](CSCCNC(=O)NCCCc2ccccc2)[C@@H](O)[C@H]1O
< 30 | 27 | < 50% | 3 | – | Nc1ncnc2c1ncn2[C@@H]1O[C@H](CSCCNC(=O)NCc2ccc(-c3cc[nH]n3)cc2)[C@@H](O)[C@H]1O
> 95 | > 90 | > 50% | – | > 90 | N=C(NCCCSC[C@H]1O[C@@H](n2cnc3c(N)ncnc32)[C@H](O)[C@@H]1O)NCc1ccccc1
< 30 | 27 | < 50% | > 50 | – | Nc1ncnc2c1ncn2[C@@H]1O[C@H](CSCCNC(=O)Nc2ccccc2)[C@@H](O)[C@H]1O
< 30 | > 90 | < 50% | > 50 | – | Nc1ncnc2c1ncn2[C@@H]1O[C@H](CSCCNC(=O)NCc2ccc(F)cc2)[C@@H](O)[C@H]1O
> 95 | > 90 | > 50% | – | > 90 | N=C(NCCCSC[C@H]1O[C@@H](n2cnc3c(N)ncnc32)[C@H](O)[C@@H]1O)Nc1ccccc1
< 30 | 27 | < 50% | 3 | – | Nc1ncnc2c1ncn2[C@@H]1O[C@H](CSCCNC(=O)NCCc2ccccc2)[C@@H](O)[C@H]1O
< 30 | 27 | < 50% | 3 | – | Nc1ncnc2c1ncn2[C@@H]1O[C@H](CSCCCNC(=O)NCCc2ccccc2)[C@@H](O)[C@H]1O
> 95 | > 90 | > 50% | – | > 90 | N=C(NCCSC[C@H]1O[C@@H](n2cnc3c(N)ncnc32)[C@H](O)[C@@H]1O)NCc1ccccc1
< 30 | 27 | < 50% | 3 | – | Nc1ncnc2c1ncn2[C@@H]1O[C@H](CSCCCNC(=O)NCc2ccccc2)[C@@H](O)[C@H]1O
< 30 | 27 | < 50% | > 50 | – | Nc1ncnc2c1ncn2[C@@H]1O[C@H](CSCCNC(=O)Nc2ccccc2Br)[C@@H](O)[C@H]1O
< 30 | 27 | < 50% | 3 | – | Nc1ncnc2c1ncn2[C@@H]1O[C@H](CSCCNC(=O)Nc2ccc(Cl)cc2)[C@@H](O)[C@H]1O
< 30 | 27 | < 50% | 3 | – | Nc1ncnc2c1ncn2[C@@H]1O[C@H](CSCCNC(=O)NCc2ccc(-c3cn[nH]c3)cc2)[C@@H](O)[C@H]1O
< 30 | 27 | < 50% | > 50 | – | Nc1ncnc2c1ncn2[C@@H]1O[C@H](CSCCNC(=O)Nc2ccc(F)cc2)[C@@H](O)[C@H]1O
< 30 | 27 | < 50% | 3 | – | CCNC(=O)NCCSC[C@H]1O[C@@H](n2cnc3c(N)ncnc32)[C@H](O)[C@@H]1O
< 30 | 27 | < 50% | 3 | – | Nc1ncnc2c1ncn2[C@@H]1O[C@H](CSCCNC(=O)NCc2ccc3cnccc3c2)[C@@H](O)[C@H]1O
< 30 | 27 | < 50% | 3 | – | Nc1ncnc2c1ncn2[C@@H]1O[C@H](CSCCCNC(=O)NCCCc2ccccc2)[C@@H](O)[C@H]1O
< 30 | 27 | < 50% | 3 | – | Nc1ncnc2c1ncn2[C@@H]1O[C@H](CSCCCNC(=O)NCc2ccc(F)cc2)[C@@H](O)[C@H]1O
< 30 | > 90 | < 50% | 3 | – | Nc1ncnc2c1ncn2[C@@H]1O[C@H](CSCCNC(=O)NCc2ccccc2Br)[C@@H](O)[C@H]1O
< 30 | 27 | < 50% | 3 | – | Nc1ncnc2c1ncn2[C@@H]1O[C@H](CSCCNC(=O)Nc2cccc3ccccc23)[C@@H](O)[C@H]1O
< 30 | 27 | < 50% | 3 | – | Nc1ncnc2c1ncn2[C@@H]1O[C@H](CSCCNC(=O)NCc2ccc(-c3ccccc3O)cc2)[C@@H](O)[C@H]1O

Second part, the molecule before the results:

Compound | inhibition [1] [%] | inhibition [2] [%] | inhibition [3] | inhibition [4] [%] | inhibition [5] [%]
N=C(NCCSC[C@H]1O[C@@H](n2cnc3c(N)ncnc32)[C@H](O)[C@@H]1O)Nc1cccc(-c2cccc(F)c2)c1 | > 95 | > 90 | > 50% | – | > 90
N=C(NCCCSC[C@H]1O[C@@H](n2cnc3c(N)ncnc32)[C@H](O)[C@@H]1O)Nc1cccc(Br)c1 | > 95 | > 90 | > 50% | – | > 90
N=C(NCCCSC[C@H]1O[C@@H](n2cnc3c(N)ncnc32)[C@H](O)[C@@H]1O)Nc1cccc(-c2cccc([N+](=O)[O-])c2)c1 | > 95 | > 90 | > 50% | – | > 90
N=C(NCCSC[C@H]1O[C@@H](n2cnc3c(N)ncnc32)[C@H](O)[C@@H]1O)Nc1cccc(I)c1 | > 95 | > 90 | > 50% | – | > 90
N=C(NCCSC[C@H]1O[C@@H](n2cnc3c(N)ncnc32)[C@H](O)[C@@H]1O)Nc1cccc(-c2ccoc2)c1 | > 95 | > 90 | > 50% | – | > 90
Nc1ncnc2c1ncn2[C@@H]1O[C@H](CSCCNC(=O)NC2CCCCC2)[C@@H](O)[C@H]1O | < 30 | 27 | < 50% | 3 | –
COc1cc2nc(-c3cccc([N+](=O)[O-])c3)nc(NCCSC[C@H]3O[C@@H](n4cnc5c(N)ncnc54)[C@H](O)[C@@H]3O)c2cc1OC | < 50 | – | inactive | < 30 | –
N=C(NCCCSC[C@H]1O[C@@H](n2cnc3c(N)ncnc32)[C@H](O)[C@@H]1O)Nc1cccc(-c2cccnc2)c1 | > 95 | > 90 | > 50% | – | > 90
N=C(NCCSC[C@H]1O[C@@H](n2cnc3c(N)ncnc32)[C@H](O)[C@@H]1O)Nc1cccc(-c2ccc(C(F)(F)F)cc2)c1 | > 95 | > 90 | > 50% | – | > 90
N=C(NCCCSC[C@H]1O[C@@H](n2cnc3c(N)ncnc32)[C@H](O)[C@@H]1O)Nc1cccc(-c2ccc(F)nc2)c1 | > 95 | > 90 | > 50% | – | > 90
COc1cc2nc(-c3ccoc3)nc(NCCSC[C@H]3O[C@@H](n4cnc5c(N)ncnc54)[C@H](O)[C@@H]3O)c2cc1OC | < 50 | – | inactive | < 30 | –
N=C(NCCCSC[C@H]1O[C@@H](n2cnc3c(N)ncnc32)[C@H](O)[C@@H]1O)Nc1cccc(-c2ccc(Cl)cc2)c1 | > 95 | > 90 | > 50% | – | > 90
N=C(NCCCSC[C@H]1O[C@@H](n2cnc3c(N)ncnc32)[C@H](O)[C@@H]1O)Nc1cccc(-c2ccc(F)cc2F)c1 | > 95 | > 90 | > 50% | – | > 90
COc1cc2nc(-c3cccc(F)c3)nc(NCCSC[C@H]3O[C@@H](n4cnc5c(N)ncnc54)[C@H](O)[C@@H]3O)c2cc1OC | < 50 | – | inactive | < 30 | –
COc1cc2nc(-c3ccc(F)c(O)c3)nc(NCCSC[C@H]3O[C@@H](n4cnc5c(N)ncnc54)[C@H](O)[C@@H]3O)c2cc1OC | < 50 | – | inactive | < 30 | –
COc1cc2nc(-c3ccc(C(F)(F)F)cc3)nc(NCCSC[C@H]3O[C@@H](n4cnc5c(N)ncnc54)[C@H](O)[C@@H]3O)c2cc1OC | < 50 | – | inactive | < 30 | –
COc1cc2nc(-c3cccc(O)c3)nc(NCCSC[C@H]3O[C@@H](n4cnc5c(N)ncnc54)[C@H](O)[C@@H]3O)c2cc1OC | < 50 | – | inactive | < 30 | –
COc1cc2nc(-c3ccc(N)cc3)nc(NCCSC[C@H]3O[C@@H](n4cnc5c(N)ncnc54)[C@H](O)[C@@H]3O)c2cc1OC | < 50 | – | inactive | < 30 | –
COc1cc2nc(-c3ccccc3O)nc(NCCSC[C@H]3O[C@@H](n4cnc5c(N)ncnc54)[C@H](O)[C@@H]3O)c2cc1OC | < 50 | – | inactive | < 30 | –
